Measured values taken from PubChem BioAssay (NCI).
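In this assay, cells in 96-well plates receive the compound at five concentrations for 48 hours. Endpoints are linearly interpolated between the surrounding concentrations. GI50: concentration for 50% inhibition of growth. TGI is the concentration that stops growth completely.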

How the values were obtained:
Assay in all cases: NCI anticancer screen, dose series, 48 h
[1] = system: MDA-MB-435
[2] = system: TK-10 renal
[3] = system: UACC-62 melanoma
[4] = system: MOLT-4 leukemia
[5] = system: T-47D breast
[6] = system: SK-OV-3 ovarian
[7] = system: HL-60(TB) leukemia
[8] = system: OVCAR-3 ovarian
[9] = system: CAKI-1 renal
[10] = system: SF-295 CNS
[11] = system: IGROV1 ovarian
[12] = system: SW-620 colon
[13] = system: K-562 leukemia
[14] = system: M14 melanoma
[15] = system: HCT-15 colon
[16] = system: HS 578T breast
[17] = system: HCC-2998 colon
[18] = system: RXF 393 renal
[19] = system: NCI-H23 lung
[20] = system: U251 CNS
[21] = system: SNB-19 CNS
[22] = system: NCI-H226 lung
[23] = system: MDA-MB-231 breast
[24] = system: ACHN renal
[25] = system: NCI/ADR-RES ovarian
[26] = system: OVCAR-5 ovarian
[27] = system: UACC-257 melanoma
[28] = system: OVCAR-4 ovarian
[29] = system: SN12C renal
[30] = system: A549 NSCLC
[31] = system: PC-3 prostate
[32] = system: HT29 colon
[33] = system: KM12 colon
[34] = system: SK-MEL-5 melanoma
[35] = system: HOP-92 NSCLC
[36] = system: DU-145 prostate
[37] = system: LOX IMVI melanoma
[38] = system: SK-MEL-2 melanoma
[39] = system: OVCAR-8 ovarian
[40] = system: NCI-H460 lung
[41] = system: SNB-75 CNS
[42] = system: COLO 205 colon
[43] = system: BT-549 breast
[44] = system: UO-31 renal
[45] = system: MALME-3M melanoma
[46] = system: NCI-H522 lung
[47] = system: MCF7 breast
[48] = system: A498 renal
[49] = system: 786-0 renal
[50] = system: SF-268 CNS
[51] = system: SR leukemia
[52] = system: RPMI-8226 leukemia
[53] = system: EKVX NSCLC
[54] = system: SF-539 CNS
[55] = system: SK-MEL-28 melanoma
[56] = system: HCT-116 colon
[57] = system: HOP-62 NSCLC
[58] = system: CCRF-CEM leukemia

CN1CCN(Cc2ccc(NC(=O)c3cncc(C#Cc4cnc5ccc(OCCCS(C)(=O)=O)nn45)c3)cc2C(F)(F)F)CC1
GI50 [1]: 221 nM
TGI [1]: 1000 nM
GI50 [2]: 1130 nM
TGI [2]: 2940 nM
GI50 [3]: 571 nM
TGI [3]: 1520 nM
GI50 [4]: 272 nM
TGI [4]: 3710 nM
GI50 [5]: 783 nM
TGI [5]: 12200 nM
GI50 [6]: 868 nM
TGI [6]: 3470 nM
GI50 [7]: 229 nM
TGI [7]: 802 nM
GI50 [8]: 795 nM
TGI [8]: 3040 nM
GI50 [9]: 459 nM
TGI [9]: 2680 nM
GI50 [10]: 1090 nM
TGI [10]: 4770 nM
GI50 [11]: 258 nM
TGI [11]: 2450 nM
GI50 [12]: 193 nM
TGI [12]: 1050 nM
GI50 [13]: 12.3 nM
TGI [13]: 2170 nM
GI50 [14]: 171 nM
TGI [14]: 701 nM
GI50 [15]: 1340 nM
TGI [15]: 4260 nM
GI50 [16]: 318 nM
TGI [16]: 1660 nM
GI50 [17]: 687 nM
TGI [17]: 2750 nM
GI50 [18]: 803 nM
TGI [18]: 1630 nM
GI50 [19]: 420 nM
TGI [19]: 1560 nM
GI50 [20]: 554 nM
TGI [20]: 2610 nM
GI50 [21]: 1290 nM
TGI [21]: 4460 nM
GI50 [22]: 131 nM
TGI [22]: 1030 nM
GI50 [23]: 166 nM
TGI [23]: 1050 nM
GI50 [24]: 1390 nM
TGI [24]: 4460 nM
GI50 [25]: 8490 nM
TGI [25]: 34100 nM
GI50 [26]: 892 nM
TGI [26]: 4570 nM
GI50 [27]: 1030 nM
TGI [27]: 3470 nM
GI50 [28]: 547 nM
TGI [28]: 1930 nM
GI50 [29]: 415 nM
TGI [29]: 2200 nM
GI50 [30]: 1090 nM
TGI [30]: 5930 nM
GI50 [31]: 873 nM
TGI [31]: 4970 nM
GI50 [32]: 475 nM
TGI [32]: 1890 nM
GI50 [33]: 5 nM
TGI [33]: 1400 nM
GI50 [34]: 775 nM
TGI [34]: 1740 nM
GI50 [35]: 101 nM
TGI [35]: 393 nM
GI50 [36]: 691 nM
TGI [36]: 3790 nM
GI50 [37]: 305 nM
TGI [37]: 1020 nM
GI50 [38]: 216 nM
TGI [38]: 783 nM
GI50 [39]: 1000 nM
TGI [39]: 4330 nM
GI50 [40]: 311 nM
TGI [40]: 953 nM
GI50 [41]: 338 nM
TGI [41]: 1130 nM
GI50 [42]: 377 nM
TGI [42]: 1150 nM
GI50 [43]: 469 nM
TGI [43]: 1390 nM
GI50 [44]: 1330 nM
TGI [44]: 3770 nM
GI50 [45]: 128 nM
TGI [45]: 576 nM
GI50 [46]: 460 nM
TGI [46]: 1280 nM
GI50 [47]: 213 nM
TGI [47]: 2830 nM
GI50 [48]: 863 nM
TGI [48]: 1620 nM
GI50 [49]: 359 nM
TGI [49]: 1170 nM
GI50 [50]: 690 nM
TGI [50]: 1720 nM
GI50 [51]: 207 nM
TGI [51]: 1470 nM
GI50 [52]: 1190 nM
TGI [52]: 3410 nM
GI50 [53]: 1120 nM
TGI [53]: 4280 nM
GI50 [54]: 164 nM
TGI [54]: 906 nM
GI50 [55]: 796 nM
TGI [55]: 2550 nM
GI50 [56]: 67.3 nM
TGI [56]: 594 nM
GI50 [57]: 833 nM
TGI [57]: 2760 nM
GI50 [58]: 213 nM
TGI [58]: 22400 nM
